“And” between values parts separate entries of the source, which are not always exact repeats. Equal entries are not always repeated. Where two headings read alike, the source gives them in different places.
Experiments:
[1] = target: Recombinant SARS-CoV-2 3CL Protease (Severe acute respiratory syndrome coronavirus 2 (2019-nCoV) (SARS-CoV-2), UniProt P0DTD1); assay: biochemical; type: biochemical; conditions: 50% SARS-CoV-2 3CL protease inhibitory concentration; read-out: IC50
SARS-CoV-2 = assay: Cytopathic effect (CPE) suppression effect confirmation test using HEK293T/ACE2-TMPRSS2 cells; type: cell-based; conditions: Severe acute respiratory syndrome coronavirus 2, HEK-293T
[2] = 72 h, read-out: EC50 (50% SARS-CoV-2 infected cell death inhibitory concentration), class, HEK293T/ACE2-TMPRSS2 cells, CPE suppression, CellTiter-Glo 2.0 after 3 days culture
[3] = 72 h, HEK293T/ACE2-TMPRSS2 cells, CPE suppression, CellTiter-Glo 2.0 after 3 days culture, read-out: EC50 (50% SARS-CoV-2 infected cell death inhibitory concentration), class
[4] = 72 h, read-out: EC50 (50% SARS-CoV-2 infected cell death inhibitory concentration), HEK293T/ACE2-TMPRSS2 cells, CPE suppression, CellTiter-Glo 2.0 after 3 days culture
[5] = 50% SARS-CoV-2 infected cell death inhibitory concentration, HEK293T/ACE2-TMPRSS2 cells, read-out: EC50

SMILES | IC50 [1] | other results
Cc1cncc(-n2c(=O)c(Cc3cc(F)c(F)c(F)c3)c(Cl)n(C(C)C#N)c2=O)c1 (racemic) [Compound I-046] | > 100 nM | 
Cc1cncc(-n2c(=O)c(Cc3cc(F)c(F)c(F)c3)c(-c3ccc(C)c(C)c3)n(C(F)C#N)c2=O)c1 (racemic) [Compound I-048] | > 100 nM | EC50 (SARS-CoV-2; [2]): 1000 to 5000 nM
CC(C)(C)OC(=O)C(C#N)n1c(N2CCC(C(F)(F)F)CC2)c(-c2ccc(F)c(Cl)c2)c(=O)n(-c2cncc(Cl)c2)c1=O (racemic) [Compound I-050] | 10 to 100 nM | EC50 (SARS-CoV-2; [3]): < 100 nM
N#CCn1c(N2CCC3(CNC(=O)C3)C2)c(-c2ccc(F)c(Cl)c2)c(=O)n(-c2cnc3cc(Cl)ccn23)c1=O (racemic) [Compound I-051] | 10 to 100 nM | EC50 (SARS-CoV-2; [3]): 1000 to 5000 nM
Cc1cncc(-n2c(=O)c(Cc3cc(F)c(F)c(F)c3)c(N3CC4(CCOC4)C3)n(C(C)C#N)c2=O)c1 (racemic) [Compound I-054] | 10 to 100 nM | EC50 (SARS-CoV-2; [3]): < 100 nM
Cc1cncc(-n2c(=O)c(Cc3cc(F)c(F)c(F)c3)c(-c3ccc(C)c(C)c3)n(C(C#N)C(=O)O)c2=O)c1 (racemic) [Compound I-056] | 10 to 100 nM | EC50 (SARS-CoV-2; [3]): < 100 nM
Cc1cncc(-n2c(=O)c(Cc3cc(F)c(F)c(F)c3)c(-c3ccc(C)c(C)c3)n(C(C)C#N)c2=O)c1 (racemic) [Compound I-057] | 9.8 nM | EC50 (SARS-CoV-2; [4]): 29 nM
N#CCn1c(N2CCC3(CCC(=O)N3)C2)c(-c2ccc(F)c(Cl)c2)c(=O)n(-c2cncc(Cl)c2)c1=O (racemic) [Compound I-061] | < 10 nM | EC50 (SARS-CoV-2; [2]): 100 to 1000 nM
N#CCn1c(N2CC3CNC(=O)C3C2)c(-c2ccc(F)c(Cl)c2)c(=O)n(-c2cncc(Cl)c2)c1=O (racemic) [Compound I-062] | < 10 nM | EC50 (SARS-CoV-2; [2]): < 100 nM
N#CCn1c(N2CCC3(CNC(=O)C3)C2)c(-c2ccc(F)c(Cl)c2)c(=O)n(-c2cncc(Cl)c2)c1=O (racemic) [Compound I-063] | < 10 nM | EC50 (SARS-CoV-2; [2]): 100 to 1000 nM
Cc1cncc(-n2c(=O)c(-c3ccc(F)c(Cl)c3)c(N3CCC4(CCOC4)C3)n(CC#N)c2=O)c1 (racemic) [Compound I-070] | < 10 nM | EC50 (SARS-CoV-2; [2]): < 100 nM
Cc1cncc(N2C(=O)N(CC#N)CC3(CCOc4ccc(Cl)cc43)C2=O)c1 (racemic) [Compound I-088] | 71 nM | EC50 (SARS-CoV-2; [4]): 97.2 nM
Cc1cncc(-n2c(=O)c(Cc3cc(F)c(F)c(F)c3)c(N3CCC(C#N)C3)n(CC#N)c2=O)c1 (racemic) [Compound I-092] | 10 to 100 nM | EC50 (SARS-CoV-2; [3]): < 100 nM
Cc1cncc(-n2c(=O)c(Cc3cc(F)c(F)c(F)c3)c(N3CCC4(CCC(=O)N4)C3)n(CC#N)c2=O)c1 (racemic) [Compound I-094] | 10 to 100 nM | EC50 (SARS-CoV-2; [3]): 100 to 1000 nM
Cc1cncc(-n2c(=O)c(Cc3cc(F)c(F)c(F)c3)c(N3CCC4(C3)NC(=O)NC4=O)n(CC#N)c2=O)c1 (racemic) [Compound I-095] | 10 to 100 nM | EC50 (SARS-CoV-2; [3]): 1000 to 5000 nM
Cc1cncc(-n2c(=O)c(Cc3cc(F)c(F)c(F)c3)c(N3CCCC(C(F)(F)F)C3)n(CC#N)c2=O)c1 (racemic) [Compound I-097] | < 10 nM | EC50 (SARS-CoV-2; [2]): < 100 nM
Cc1cncc(-n2c(=O)c(Cc3cc(F)c(F)c(F)c3)c(N3CCC(C(N)=O)C3)n(CC#N)c2=O)c1 (racemic) [Compound I-100] | < 10 nM | EC50 (SARS-CoV-2; [2]): < 100 nM
COC1CCN(c2c(Cc3cc(F)c(F)c(F)c3)c(=O)n(-c3cncc(C)c3)c(=O)n2CC#N)C1 (racemic) [Compound I-102] | < 10 nM | EC50 (SARS-CoV-2; [2]): < 100 nM
Cc1cncc(-n2c(=O)c(Cc3cc(F)c(F)c(F)c3)c(N3CC4CC(F)(F)C4C3)n(CC#N)c2=O)c1 (racemic) [Compound I-103] | < 10 nM | EC50 (SARS-CoV-2; [2]): < 100 nM
Cc1cncc(-n2c(=O)c(Cc3cc(F)c(F)c(F)c3)c(N3CCC(C(F)F)C3)n(CC#N)c2=O)c1 (racemic) [Compound I-107] | < 10 nM | EC50 (SARS-CoV-2; [2]): < 100 nM
Cc1cncc(-n2c(=O)c(Cc3cc(F)c(F)c(F)c3)c(N3CCC(S(N)(=O)=O)C3)n(CC#N)c2=O)c1 (racemic) [Compound I-108] | < 10 nM | EC50 (SARS-CoV-2; [2]): 100 to 1000 nM
Cc1cncc(-n2c(=O)c(Cc3cc(F)c(F)c(F)c3)c(N3CCC4(CCC(O)C4)C3)n(CC#N)c2=O)c1 (racemic) [Compound I-110] | < 10 nM | EC50 (SARS-CoV-2; [2]): < 100 nM
Cc1cncc(-n2c(=O)c(Cc3cc(F)c(F)c(F)c3)c(N3CCC(C(F)(F)F)C3)n(CC#N)c2=O)c1 (racemic) [Compound I-113] | < 10 nM | EC50 (SARS-CoV-2; [2]): < 100 nM
Cc1cncc(-n2c(=O)c(Cc3cc(F)c(F)c(F)c3)c(N3CCC(C)(F)C3)n(CC#N)c2=O)c1 (racemic) [Compound I-115] | < 10 nM | EC50 (SARS-CoV-2; [2]): < 100 nM
N#CCn1c(N2Cc3ccccc3C2)c(-c2cccc(Cl)c2)c(=O)n(C2CCn3cnnc32)c1=O (racemic) [Compound I-121] | > 100 nM | 
N#CCn1c(N2Cc3ccccc3C2)c(Cc2cc(F)c(F)c(F)c2)c(=O)n(C2CCNC(=O)C2)c1=O (racemic) [Compound I-155] | > 100 nM | EC50 (SARS-CoV-2; [2]): 1000 to 5000 nM
N#CCn1c(N2C[C@@H]3CC[C@H]2C3)c(-c2ccc(F)c(Cl)c2)c(=O)n(-c2cncc(Cl)c2)c1=O (racemic) [Compound I-267] | < 10 nM | EC50 (SARS-CoV-2; [5]): < 100 nM

SMILES | IC50 [1] | other results
CC1(c2ccc(F)c(Cl)c2)CN(CC#N)C(=O)N(c2cncc(Cl)c2)C1=O (racemic) [Compound I-283] | < 10 nM and > 100 nM | 
N#CCn1c(N2CC3(CCOC3)C2)c(Cc2cc(F)c(F)c(F)c2)c(=O)n(CCC(N)=O)c1=O [Compound I-001] | > 100 nM | 
Cn1cnc(Cn2c(=O)c(Cc3cc(F)c(F)c(F)c3)c(N3Cc4cn[nH]c4C3)n(CC#N)c2=O)n1 [Compound I-002] | > 100 nM | 
Cc1cncc(-n2c(=O)c(Cc3cc(F)c(F)c(F)c3)c(OC(C(F)(F)F)C(F)(F)F)n(CC#N)c2=O)c1 [Compound I-004] | > 100 nM | 
Cc1cncc(-n2c(=O)c(Cc3cc(F)c(F)c(F)c3)c(Cl)n(CC#N)c2=O)c1 [Compound I-013] | 10 to 100 nM | 
Cc1cncc(-n2c(=O)c(-c3ccc(F)c(Cl)c3)c(-c3ccc(C(=O)O)cc3)n(CC#N)c2=O)c1 [Compound I-024] | > 100 nM | 
N#CCn1c(N2CC3(C2)CC(F)(F)C3)c(-c2ccc(F)c(Cl)c2)c(=O)n(-c2cncc(Cl)c2)c1=O [Compound I-077] |  | EC50 (SARS-CoV-2; [4]): 1.66 nM
N#CCn1c(N2CC(n3cccn3)C2)c(-c2ccc(F)c(Cl)c2)c(=O)n(-c2cncc(Cl)c2)c1=O [Compound I-080] | < 10 nM | 
N#CCn1c(N2CCN(c3ccccc3)C(=O)C2)c(-c2ccc(F)c(Cl)c2)c(=O)n(-c2cncc(Cl)c2)c1=O [Compound I-081] | > 100 nM | 
Cn1cnc(Cn2c(=O)c(Cc3cc(F)c(F)c(F)c3)c(N3CC4(CCOC4)C3)n(CC#N)c2=O)n1 [Compound I-089] | > 100 nM | 
Cc1cncc(-n2c(=O)c(Cc3cc(F)c(F)c(F)c3)c(N3C[C@@H]4[C@H](C3)C4(F)F)n(CC#N)c2=O)c1 [Compound I-099] |  | EC50 (SARS-CoV-2; [3]): < 100 nM
Cc1cc(-n2c(=O)c(Cc3cc(F)c(F)c(F)c3)c(N3CC4(CCOC4)C3)n(CC#N)c2=O)cc(=O)[nH]1 [Compound I-123] | > 100 nM | 
N#CCn1c(Cl)c(-c2ccc(F)c(Cl)c2)c(=O)n(-c2cnc3ccc(F)cn23)c1=O [Compound I-125] | > 100 nM | 
CC1(C)CN(c2c(-c3ccc(F)c(Cl)c3)c(=O)n(-c3cnc4cc(F)ccn34)c(=O)n2CC#N)C1 [Compound I-154] | < 10 nM | 
N#CCn1c(N2Cc3ccccc3C2)c(Cc2cc(F)c(F)c(F)c2)c(=O)n(-c2cncc(=O)[nH]2)c1=O [Compound I-158] | 10 to 100 nM | 
N#CCn1c(N2CC3(CCOC3)C2)c(-c2ccc(F)c(Cl)c2)c(=O)n(-c2cc(C(F)(F)F)[nH]c(=O)c2)c1=O [Compound I-186] | 10 to 100 nM | 
N#CCn1c(N2CC3(CCOC3)C2)c(-c2ccc(F)c(Cl)c2)c(=O)n(-c2cc(Cl)[nH]c(=O)c2)c1=O [Compound I-187] | 10 to 100 nM | 
Cc1cncc(-n2c(=O)c(-c3ccc(F)c(Cl)c3)c(N3CC4(CCOCC4)C3)n(CC#N)c2=O)n1 [Compound I-193] |  | EC50 (SARS-CoV-2; [3]): < 100 nM
Cc1cncc(-n2c(=O)c(-c3ccc(F)c(Cl)c3)c(N3CCC(C(F)F)CC3)n(CC#N)c2=O)n1 [Compound I-194] |  | EC50 (SARS-CoV-2; [3]): < 100 nM
N#CCn1c(N2CC3(C2)CC(F)(F)C3)c(-c2ccc(F)c(Cl)c2)c(=O)n(-c2cc(=O)cc(Br)[nH]2)c1=O [Compound I-222] | > 100 nM | 
N#CCn1c(N2CCCC2)c(-c2ccc(F)c(Cl)c2)c(=O)n(-c2cncc(Cl)c2)c1=O [Compound I-252] | < 10 nM | 
N#CCn1c(N2CCc3ccccc3C2)c(-c2ccc(F)c(Cl)c2)c(=O)n(-c2cncc(Cl)c2)c1=O [Compound I-253] |  | EC50 (SARS-CoV-2; [5]): < 100 nM
N#CCn1c(N2CCCCC2)c(-c2ccc(F)c(Cl)c2)c(=O)n(-c2cncc(Cl)c2)c1=O [Compound I-254] | < 10 nM | 
Cc1cncc(-n2c(=O)c(-c3ccc(F)c(Cl)c3)c(-c3ccccc3)n(CC#N)c2=O)c1 [Compound I-268] |  | EC50 (SARS-CoV-2; [5]): < 100 nM
Cc1cncc(-n2c(=O)c(-c3ccc(F)c(Cl)c3)c(-c3ccc(C4CC4)nc3)n(CC#N)c2=O)c1 [Compound I-269] |  | EC50 (SARS-CoV-2; [5]): < 100 nM
Cc1cc(-n2c(=O)c(-c3ccc(F)c(Cl)c3)c(Cl)n(CC#N)c2=O)c[n+]([O-])c1 [Compound I-277] | > 100 nM | 
N#CCn1c(N2CC3(CCOC3)C2)c(C2CCCCC2)c(=O)n(-c2cncc(Cl)c2)c1=O [Compound I-285] | > 100 nM | 

Reference: patent US20250092056A1, “URACIL DERIVATIVES HAVING VIRUS REPLICATION INHIBITORY ACTIVITY AND PHARMACEUTICAL COMPOSITION COMPRISING THE SAME” (Shionogi & Co., Ltd., priority 2022, published 2025)
